Assay results as given in patent US20080014230A1, “Cosmetic compositions combining a C-glycoside derivative and an N-acylamino amide derivative” (L'OREAL, priority 2006, published 2008).
Blank lines part the entries; values can stand above or below the compound they belong to.

Test system: keratinocyte transglutamase (TGk) activity in normal human epidermal keratinocytes (NHEK) of R3KO15 type
Assay: keratinocyte transglutamase (TGk) activity after prolonged contact of keratinocytes with the test composition
Assay type: cell-based
Details: for Activity/μg: TGk activity relative to the amount of proteins, calcium-free medium; for %/blank: TGk activity, % of blank (−Ca)
Description: The tests performed below use normal human epidermal keratinocytes (NHEK) of R3KO15 type obtained from breast surgery.
The activity of a composition in accordance with the invention is tested with regard to these keratinocytes by assaying the keratinocyte transglutamase (TGk) activity after prolonged contact of the keratinocytes with the test composition, the increase in TGk activity sanctioning a stimulation of keratinocyte differentiation.
The activity is tested in an SFM medium available from Invitrogen under the reference 17005034.
Its composition is as follows: • EGF 0.25 ng/ml, • pituitary extract (PE) 25 μg/ml (Invitrogen 3700015), • gentamycin 25 μg/ml (Sigma G1397) • optionally supplemented with 1.5 mM final calcium chloride (Prolabo 22317297).
Keratinocytes (R3KO15) are precultured in SFM1x medium in 96-well plates (one plate for the test, one for the protein assay and one for the MTT). After incubation for 24 hours at 37° C., the culture medium is removed and replaced with SFM medium, which is not supplemented (calcium-free blank) or supplemented with 1.5 mM final of calcium chloride and not containing (blank) or containing the products, mixed with the test or the references.
After incubation for 48 hours at 37° C. and 5% CO2, the culture medium is removed and the cells are again treated and then incubated for 48 hours at 37° C.
All the experimental conditions are performed in hexaplicate.
The cell lawns are washed and then sonicated, on ice, in Tris/EDTA pH 8.0 buffer.
The membrane TGk enzyme is extracted in the presence of Triton X-100 (incubation with stirring at 4° C.) and the TGk activity is then determined by measuring the covalent addition of tritiated putrescine at 2 μCi/ml final (Amersham TRK 414; 1.04 TBq/mmol, 28 Ci/mmol) to casein (acceptor protein, 2 mg/ml final), in a Tris 0.1 M, CaCl2 4 mM, EDTA 0.4 mM, DTT 5 mM, pH 8.3 buffer, for 2 hours at 37° C.
The casein is precipitated by addition of 20% trichloroacetic acid (TCA) containing 1 mM putrescine and the precipitates are recovered on a Skatron filter and collector (extensive washing with 5% TCA, 0.1 mM putrescine and ethanol) and the dry filters are then counted by liquid scintillation.
The proteins of each sample are assayed using the Dc Protein Assay kit (BioRad 500-0116) and according to the protocol recommended by the manufacturer.
The results obtained are given in Table 1 below, the TGk activity being relative to the amount of proteins—calcium-free medium.

Activity/μg (1 mM): 171 | Activity/μg (3 mM): 210 | %/blank (1 mM): 136% | %/blank (3 mM): 167%
Compound: CC(O)C[C@@H]1OC[C@@H](O)[C@H](O)[C@H]1O (stereo partly drawn) [C-glycoside, C-β-D-xylopyranoside-2-hydroxypropane]

Compound: CC(=O)N(c1cccc(C(F)(F)F)c1)C(C(=O)NCC(=O)O)C(C)C (centres unmarked) [N-acylamino amide, {2-[acetyl(3-trifluoromethyl-phenyl)amino]-3-methylbutyrylamino}acetic acid]
Activity/μg (0.04 mg/ml): 114 | Activity/μg (0.2 mg/ml): 104 | %/blank (0.04 mg/ml): 91% | %/blank (0.2 mg/ml): 82% | effect on the TGk activity (in words) (tested at 0.2 mg/ml and 0.04 mg/ml): no significant effect

Compound: CC1=C(/C=C/C(C)=C/C=C/C(C)=C/C(=O)O)C(C)(C)CCC1 [Retinoic acid, retinoic acid, reference compound]
Activity/μg (10^−7 M): 111 | %/blank (10^−7 M): 88%
